Source: EP4721753A1, “PHARMACEUTICAL COMPOSITION FOR PREVENTING OR TREATING CORONAVIRUS INFECTIOUS DISEASES COMPRISING CELL-PERMEABLE PEPTIDE-NUCLEIC ACID OLIGOMER AS ACTIVE INGREDIENT” (GiftedMS Co., Ltd., priority 2023, dated 2024)
Where “and” joins values, the source holds several entries; their conditions need not be identical. Equal entries are not always repeated. Where two headings read alike, the source gives them in different places.

Assays:
Assay type in all cases: cell-based
HCoV-OC43 = experiment: qRT-PCR evaluation of antiviral efficacy (viral RNA level in culture supernatant), HCT8 cells infected with HCoV-OC43; conditions: 1 µM PNA oligomer; HCT8 cells infected with HCoV-OC43 at 500 TCID50; viral RNA from cell supernatant on Day 3 after infection
Description: In order to analyze the level of viral RNA in viral particles present in a virus culture solution to determine how well the constructed PNA oligomer-based drugs inhibit viral genetic replication, qRT-PCR was performed.
Specifically, HCT8 cells cultured in 6-well plates one day before for drug screening were infected with HCoV-OC43 at a dose of 500 TCID50 using a serum-free RPMI medium. At the same time as infection, the cells were also treated with 1 µM of PNA oligomer, and after 30 minutes, the cells were washed twice with serum-free RPMI, and then the medium was replaced with an RPMI-Complete medium (containing 10% FBS and 1% penicillin/streptomycin) and the cells were treated with 1 µM of PNA oligomer. On Day 3 after infection, viral RNA was extracted from 140 µL of the cell supernatant using a QIAamp viral RNA mini kit manufactured by Qiagen. Virus extraction was performed according to the kit manual. The viral titer of the extracted viral RNA was measured by real-time PCR using a One step TB green kit manufactured by Takara. The primers used are as follows. HCoV-OC43 primer; Nucleoprotein (NP) gene (5'-[…]-3', 5'-[…]-3'). Real-time PCR conditions are as follows. Temperature Stage 1: Reverse transcription 42°C 5 min, 95°C 10 sec, 1 Cycle. Stage 2: PCR reaction 95°C 5 sec, 60°C 34 sec, 35 Cycles. Stage 3: melting curve analysis 95°C 15 sec, 65°C 60 sec, 95°C 15 sec.

SARS-CoV-2 = conditions: 1000 nM; Vero cells pre-incubated 2 hours; viral RNA 24 hours after infection
SARS-CoV-2 virus = conditions: Vero cells, 1000 to 0.49 nM, 2-fold dilution, viral RNA after 24 hours, three repeated experiments

## CC(C)(C)[C@H](NC(=O)C(F)(F)F)C(=O)N1C[C@H]2[C@@H]([C@H]1C(=O)N[C@H](C#N)C[C@@H]1CCNC1=O)C2(C)C [PF07321332, Nirmatrelvir]
HCoV-OC43
  Inhibition%: 97.98%

## Paxlovid
SARS-CoV-2
  Inhibition%: 96.03%
SARS-CoV-2 virus
  IC50: 317 nM and 328 nM and 464 nM
SARS-CoV-2 virus; listed as Paxlovid (P.C)-1
  IC50: 317 nM
SARS-CoV-2 virus; listed as Paxlovid (P.C)-2
  IC50: 328 nM
SARS-CoV-2 virus; listed as Paxlovid (P.C)-3
  IC50: 464 nM
